Read-outs that look alike come from different tables or passages of the source. One block for each compound: values may come before it.
Tests used:
[1] = Purification of Epirubicin HCl: solution warmed to 60° C., dimer and aglycone; type: physicochemical; details: for dimer content / epirubicin aglycone: cooled to 50-60° C.
Description: Epirubicin hydrochloride (1550 mg) (containing epirubicin aglycone 0.04% and dimer 0.8%) was dissolved in water (100 ml) and the pH was corrected to 3.2-3.8 with hydrochloric acid at room temperature. The solution was then warmed in about ½ hour to 60° C.-65° C. and then maintained at tis temperature for 1 hour and then the solution was cooled to 50-60° C. At the same time, the pH was corrected to 4.5-5.0 with sodium hydroxide (at this point epirubicin aglycone was about 0,10% and dimer content<0,10%). Then the solution was quickly transferred to a cold container.
Epirubicin hydrochloride (1550 mg) (containing epirubicin aglycone 0.04% and dimer 0.8%) was dissolved in water (100 ml) and the pH corrected to 3.2-3.8 with hydrochloric acid at room temperature (by means of 30 microliters of a 1 M aqueous solution). The solution was quickly warmed (in less than ½ hour) to 60° C.-65° C. and then maintained at this temperature for 45 minutes and then the solution was cooled to 50-60° C. At the same time, the pH was corrected to 4.5-5.0 with AMBERLITE® IRA-67 free base (0,18 ml of resin 1,6M) (at this point epirubicin aglycone was about 0,09% and dimer content<0,10%). Then the solution was quickly filtered and then transferred into a cold container.

[2] = Preparation of stable lyophilized anthracycline glycoside hydrochlorides: aglycone and dimer in the lyophilized product; type: physicochemical
Description: (§1) Idarubicin hydrochloride (500 mg) was dissolved in water (50 ml) and acetic acid and ammonium acetate (both 1.5% molar amount with respect to the molar amount of idarubicin hydrochloride) were added. The solution was frozen and lyophilized.
as §1, with “Charcoal was then added (100 g) and the solution was stirred for two hours. After that, the suspension was filtered through 0.4 micron membrane and then the” for “The”
Doxorubicin hydrochloride (500 mg) was dissolved in water (20 ml) and the pH corrected to 3.5 with acetic acid at room temperature. The solution was then warmed to 60° C. for 2 hours and then ammonium acetate (1.5% molar amount with respect to the molar amount of doxorubicin hydrochloride) was added. Then the solution was quickly frozen and lyophilized.
(§2) Epirubicin hydrochloride (1550 mg) was dissolved in water (100 ml) and the pH corrected to 3.2-3.8 with hydrochloric acid at room temperature. The solution was then warmed to 60° C.-65° C. for 1 hours and then the solution was cooled to 50-60° C. At the same time, the pH was corrected to 4.5-5.0 with sodium hydroxide. Then the solution was quickly frozen and lyophilized.
Idarubicin hydrochloride (5.0 g) was dissolved in water (500 ml). Then 58 microlitres of AMBERLITE® IRA-67 (1.6M) acetate (meaning 1.0% molar amount with respect to the molar amount of idarubicin hydrochloride) and 4.5 mg of acetic acid (meaning 0.8% molar amount with respect to the molar amount of idarubicin hydrochloride) were added. The suspension was slurried for two hours, then filtered, frozen and lyophilized.
Doxorubicin hydrochloride (5.0 g) was dissolved in water (200 ml) and the pH corrected to 4.6-4.8 with IN hydrochloric acid at room temperature. Then 80 microlitres of AMBERLITE® IRA-67 (1.6M) acetate (meaning 1.5% molar amount with respect to the molar amount of doxorubicin hydrochloride) was added. The solution was then filtered, frozen and lyophilized.
as §2, with “was” for “was then”, “hour” for “hours”, “AMBERLITE® IRA-67 free base.” for “sodium hydroxide.”, “filtered, frozen,” for “frozen”

[3] = cited from earlier work
[4] = cited from earlier work; remark: listed apart in the source
[5] = Stability tests of Doxorubicin HCl solutions at room temperature (aglycone); type: physicochemical
Description: Doxorubicin hydrochloride (500 mg) was dissolved in 0.001 N hydrochloric acid (20 ml) at room temperature. The pH of this solution was 3.25.
Doxorubicin hydrochloride (500 mg) was dissolved in 0.1 N acetic acid (20 ml) at room temperature. The pH of this solution was 2.62. After 1 hour, ammonium acetate (4% molar amount with respect to the molar amount of the doxorubicin hydrochloride) was added to the solution and the solution kept at room temperature. The pH rose from 2.62 to 3.02. The results in table 46 show the stability data of this solution at room temperature.
Doxorubicin hydrochloride (500 mg) was dissolved in 0.05 M formic acid (20 ml) at room temperature. The pH of this solution was 2.52. After 1 hour, ammonium acetate (4% molar amount in respect of the molar amount of doxorubicin hydrochloride) was added and the solution kept at room temperature. The pH rose from 2.52 to 2.71.

[6] = Stability test of stabilized lyophilized Doxorubicin HCl (IRA-67 acetate resin); type: physicochemical
Description: Starting product was doxorubicin hydrochloride, 2.5% w/v in water. The pH of this solution was corrected to 4.6-4.8 with IN HCl. Then 1.5% molar amount of AMBERLITE® IRA-67 (1.6 M) acetate with respect to doxorubicin hydrochloride was added. After 2 hr of slurrying, the solution was filtered through a 0.4 micron membrane then it was, frozen and lyophilized.

[7] = Purification of Doxorubicin HCl: solution at pH 3.5 warmed to 60° C., aglycone; type: physicochemical
Description: Doxorubicin hydrochloride (500 mg) was dissolved in water (10 ml) at room temperature. A small amount of 0.1 N hydrochloric acid was added to lower the pH from 5.4 to 3.5. […]

[8] = cited from earlier work; remark: listed apart in the source
[9] = Example 36: 1550 mg in water (100 ml), t = 0, pH 3.6, 20° C.
[10] = Example 36: after 1 hour at 60° C.-65° C., pH corrected to 4.5-5.0 with sodium hydroxide
[11] = Example 36: final, pH 4.8 (sodium hydroxide), 10° C.
[12] = Example 37: 1550 mg in water (100 ml), t = 0, pH 3.6, 20° C.
[13] = Example 37: Final, pH 4.7 (AMBERLITE IRA-67 free base), 10° C.
[14] = Example 37: after 45 minutes at 60° C.-65° C., pH corrected to 4.5-5.0 with AMBERLITE IRA-67 free base
[15] = starting Epirubicin hydrochloride (1550 mg) before dissolving
[16] = Example 41: pH 3.2-3.8, 60° C.-65° C. for 1 hour, pH 4.5-5.0 with sodium hydroxide, frozen and lyophilized
[17] = Example 44: pH 3.2-3.8, 60° C.-65° C. for 1 hour, pH 4.5-5.0 with AMBERLITE IRA-67 free base, filtered, frozen, lyophilized

% aglycone [1, 9]: 0.04%
% dimer content [1, 9]: 0.80%
% aglycone ([1]; Example 36: 15 min, 60° C.): 0.06%
% dimer content ([1]; Example 36: 15 min, 60° C.): 0.38%
% aglycone ([1]; Example 36: 30 min, 60° C.): 0.07%
% dimer content ([1]; Example 36: 30 min, 60° C.): 0.18%
% aglycone ([1]; Example 36: 45 min, 60° C.): 0.09%
% dimer content ([1]; Example 36: 45 min, 60° C.): 0.11%
% aglycone ([1]; Example 36: 60 min, 60° C.): 0.11%
% dimer content ([1]; Example 36: 60 min, 60° C.): 0.08%
% aglycone ([1]; Example 36: T = 0, 60° C.): 0.04%
% dimer content ([1]; Example 36: T = 0, 60° C.): 0.74%
dimer content [1, 10]: < 0,10%
epirubicin aglycone [1, 10]: about 0,10%
% aglycone [1, 11]: 0.11%
% dimer content [1, 11]: 0.08%
% aglycone [1, 12]: 0.04%
% dimer content [1, 12]: 0.80%
% aglycone ([1]; Example 37: 10 min, 60° C.): 0.05%
% dimer content ([1]; Example 37: 10 min, 60° C.): 0.38%
% aglycone ([1]; Example 37: 20 min, 60° C.): 0.07%
% dimer content ([1]; Example 37: 20 min, 60° C.): 0.18%
% aglycone ([1]; Example 37: 30 min, 60° C.): 0.09%
% dimer content ([1]; Example 37: 30 min, 60° C.): 0.11%
% aglycone ([1]; Example 37: 40 min, 60° C.): 0.10%
% dimer content ([1]; Example 37: 40 min, 60° C.): 0.08%
% aglycone [1, 13]: 0.10%
% dimer content [1, 13]: 0.08%
% aglycone ([1]; Example 37: T = 0, 60° C.): 0.05%
% dimer content ([1]; Example 37: T = 0, 60° C.): 0.76%
dimer content [1, 14]: < 0,10%
epirubicin aglycone [1, 14]: about 0,09%
dimer contained [1, 15]: 0.8%
epirubicin aglycone contained [1, 15]: 0.04%
aglycone contained in lyophilized product [2, 16]: 0.12%
dimer contained in lyophilized product [2, 16]: 0.1%
aglycone contained in lyophilized product [2, 17]: 0.10%
dimer contained in lyophilized product [2, 17]: 0.10%
SMILES: COc1cccc2c1C(=O)c1c(O)c3c(c(O)c1C2=O)C[C@@](O)(C(=O)CO)C[C@@H]3O[C@H]1CC(N)[C@@H](O)C(C)O1.Cl (stereo in doubt) [Epirubicin HCl, epirubicin hydrochloride]
pH in a 0.5% w/v solution in water [3]: 4-5.5
pKa in water [4]: 7.7

% aglycone ([5]; 0.05 M formic acid, after addition of NH4OAc (4% molar), pH 2.71, 0.5 hr - 20° C.): 0.13%
% aglycone ([5]; 0.05 M formic acid, after addition of NH4OAc (4% molar), pH 2.71, 1.0 hr - 20° C.): 0.11%
% aglycone ([5]; 0.05 M formic acid, after addition of NH4OAc (4% molar), pH 2.71, 1.5 hr - 20° C.): 0.12%
% aglycone ([5]; 0.05 M formic acid, after addition of NH4OAc (4% molar), pH 2.71, 2.0 hr - 20° C.): 0.10%
% aglycone ([5]; 0.05 M formic acid, after addition of NH4OAc (4% molar), pH 2.71, 4.0 hr - 20° C.): 0.14%
% aglycone in doxorubicin HCl ([5]; 0.1 N acetic acid, after addition of NH4OAc (4% molar), pH 3.02, 0.5 hr - 20° C.): 0.20%
% aglycone in doxorubicin HCl ([5]; 0.1 N acetic acid, after addition of NH4OAc (4% molar), pH 3.02, 1.0 hr - 20° C.): 0.13%
% aglycone in doxorubicin HCl ([5]; 0.1 N acetic acid, after addition of NH4OAc (4% molar), pH 3.02, 1.5 hr - 20° C.): 0.12%
% aglycone in doxorubicin HCl ([5]; 0.1 N acetic acid, after addition of NH4OAc (4% molar), pH 3.02, 2.0 hr - 20° C.): 0.35%
% aglycone in doxorubicin HCl ([5]; 0.1 N acetic acid, after addition of NH4OAc (4% molar), pH 3.02, 3.0 hr - 20° C.): 0.12%
% aglycone in doxorubicin HCl ([5]; 0.1 N acetic acid, after addition of NH4OAc (4% molar), pH 3.02, 6.0 hr - 20° C.): 0.16%
% aglycone ([5]; 500 mg in 0.001 N hydrochloric acid (20 ml), pH 3.25, 20° C., 1.0 hr): 0.24%
% aglycone ([5]; 500 mg in 0.001 N hydrochloric acid (20 ml), pH 3.25, 20° C., 3.0 hr): 0.21%
% aglycone ([5]; 500 mg in 0.001 N hydrochloric acid (20 ml), pH 3.25, 20° C., 5.0 hr): 0.26%
% aglycone ([5]; 500 mg in 0.001 N hydrochloric acid (20 ml), pH 3.25, 20° C., 22.0 hr): 0.25%
% aglycone ([5]; 500 mg in 0.05 M formic acid (20 ml), 1.0 hr - 20° C., pH 2.52, before addition of NH4OAc): 0.20%
% aglycone in doxorubicin HCl ([5]; 500 mg in 0.1 N acetic acid (20 ml), 1.0 hr - 20° C., pH 2.62, before addition of NH4OAc): 0.17%
% aglycone ([6]; lyophilized product obtained (IRA-67 acetate treatment)): 0.09%
% aglycone ([6]; solution after treatment with 1.5% mol of IRA-67 acetate, slurried 2 hr, filtered, loaded into lyophilizer): 0.07%
% aglycone ([6]; starting solid doxorubicin hydrochloride, 2.5% w/v in water, after correcting pH (4.75), before resin treatment): 0.07%
% aglycone ([7]; 500 mg in water (10 ml), pH lowered from 5.4 to 3.5 with hydrochloric acid, 1 hr, 60° C.): 0.11%
% aglycone ([7]; 500 mg in water (10 ml), pH lowered from 5.4 to 3.5 with hydrochloric acid, 2 hr, 60° C.): 0.31%
% aglycone ([7]; pH 3.5 solution after two hours at 60° C., cooled, 1 hr, 20° C.): 0.21%
% aglycone ([7]; pH 3.5 solution after two hours at 60° C., cooled, 3 hr, 20° C.): 0.22%
aglycone contained in lyophilized product ([2]; Example 40: pH 3.5 with acetic acid, 60° C. for 2 hours, ammonium acetate 1.5% molar, frozen and lyophilized): 0.12%
aglycone contained in lyophilized product ([2]; Example 43: pH 4.6-4.8, AMBERLITE IRA-67 acetate 1.5% molar, filtered, frozen and lyophilized): 0.10%
SMILES: COc1cccc2c1C(=O)c1c(O)c3c(c(O)c1C2=O)C[C@@](O)(C(=O)CO)C[C@@H]3O[C@H]1C[C@@H](N)[C@H](O)C(C)O1.Cl (stereo partly shown) [Doxorubicin HCl, Doxorubicin hydrochloride]

SMILES: COc1cccc2c1C(=O)c1c(O)c3c(c(O)c1C2=O)C[C@@](O)(C(=O)CO)C[C@@H]3O[C@H]1C[C@@H](N)[C@H](O)C(C)O1 (stereo partly shown) [Doxorubicin]
solubility ([8]; in acetone, benzene, chloroform and ethyl ether): practically insoluble
solubility ([8]; in water, methanol): soluble

SMILES: COc1cccc2c1C(=O)c1c(O)c3c(c(O)c1C2=O)C[C@@](O)(C(=O)CO)C[C@@H]3O[C@H]1C[C@@H](N)[C@@H](O)C(C)O1 (stereo partly shown) [Epirubicin]
solubility ([8]; in acetone, chloroform, and methylene chloride): practically insoluble
solubility ([8]; in water, methanol and ethyl alcohol, at a temperature of 50° C.): soluble

Reference: patent publication US20070004653A1, “Stable lyophilized anthracycline glycosides” (priority 2005, published 2007)
